Source: patent US10131639B2, “Formulations of 2-(tert-butylamino)-4-((1R,3R,4R)-3-hydroxy-4methylcyclohexylamino)-pyrimidine-5-carboxamide” (Signal Pharmaceuticals, LLC, priority 2014, dated 2018)
Where two headings read alike, the source gives them in different places.

What was measured:
[1] = Phase 1 study Part 2: single-dose plasma pharmacokinetics, relative bioavailability (tablet vs AIC) and food effect in healthy subjects; format: in vivo, human; details: for AUC(0-t) / Tmax / AUC(0-inf) / Cmax / Vd/F / half-life: human, plasma; for Vd/F: read-out: Vz/F (apparent total volume of distribution)
Method: Part 2 was an open label, randomized, crossover study with three periods. The study consisted of a screening phase (Days −21 to −2), baseline (Day −1), three treatment/assessment periods, and a follow up phone call.
Twelve eligible subjects reported to the study center on Day −1 of Period 1 for confinement and baseline assessments.
All subjects fasted overnight for at least 10 hours prior to dosing. For Treatment F, subjects received a standard high-fat breakfast 30 minutes before dosing. Dosing occurred 30 minutes (±5 minutes) after serving the meal.
Treatments D and E were administered in the morning following an overnight fast of at least 10 hours. Subjects who received Treatments D and E (fasted) continued to fast for at least 4 hours after dosing. For Treatment F, subjects received a standard high fat (approximately 50% of the total caloric content of the meal), high calorie (approximately 800 to 1000 calories) breakfast 30 minutes before dosing. The meal derived approximately 150, 250, and 500 to 600 calories from protein, carbohydrates, and fat, respectively. Subjects consumed the entire meal within 30 minutes of serving. Dosing occurred 30 minutes (±5 minutes) after serving the meal.
Actual sampling times were used in the calculation of PK parameters.
AUCt: AUC from time zero to the last quantifiable concentration.
AUC∞: AUC from time zero extrapolated to infinity.
Cmax: Maximum observed plasma concentration.
CL/F: Apparent total plasma clearance when dosed orally.
Vz/F: Apparent total volume of distribution when dosed orally.
t1/2: Terminal phase elimination half-life.
Geometric least squares (LS) means, ratio (fed/fasted) and 90% confidence intervals (CIs) of the ratio of geometric LS means were from an analysis of variance (ANOVA) model with treatment, period, and sequence as fixed effects, and subject nested within sequence as a random effect on the natural log-transformed pharmacokinetics.
The median, median difference (fed-fasted), and 90% confidence interval of the median difference were from the Hodges-Lehmann estimate.

[2] = Phase 1 study: safety and tolerability in healthy subjects; format: in vivo, human
Excerpt: Safety will be monitored throughout the study. Safety evaluations will include adverse event (AE) reporting, PEs, vital signs, 12-lead ECGs, clinical laboratory safety tests (including liver function tests (LFTs), total cholesterol, triglycerides, high-density lipoprotein (HDL), and low-density lipoprotein (LDL)) in addition to standard clinical chemistry, hematology, and urinalysis tests), review of concomitant medications/procedures, evaluation of wound healing, and pregnancy tests for female subjects.
All AEs will be monitored and recorded throughout the study from the time the informed consent form (ICF) is signed until study completion, and when made known to the Investigator within 28 days after the last dose of Compound 1 (and those serious adverse events (SAEs) made known to the Investigator at any time thereafter that are suspected of being related to IP). All concomitant medications and procedures will be reviewed and recorded from the time the subject signs the ICF until study completion. A follow-up visit (Part 1) or a follow-up phone call (Part 2) will be scheduled for all subjects. If a subject is discontinued from the study for any reason, an ET visit will be performed.
Part 1: To evaluate the safety of single and multiple oral doses of Compound 1; and Part 2: To evaluate the safety and tolerability of the formulated Compound 1 tablets when administered with food.

[3] = Solubility in water and SGF (24 hours, ambient temperature, HPLC/UV); format: physicochemical; details: for solubility at 24 h: ambient temperature
Method: Solubility in Water and SGF: A portion of the sample was weighed into a 2 mL clear HPLC vial. […] The sample was removed from the shaker and pH measurement was performed using a calibrated pH meter. Then a portion of the sample was filtered using […] Nylon-membraned centrifuge tube filter at 14000 RPM for 5 min. The filtrate was analyzed using HPLC/UV with appropriate dilution. The filtered solid residues were analyzed using XRPD.
For solubility in SGF, the samples were prepared and assayed in the same procedures as mentioned above.

[4] = Solid state physical stability under stress conditions (XRPD); format: physicochemical; details: XRPD vs initial material
Method: A portion of the sample was loaded to a 4 mL clear glass vial. Four samples were prepared for each salt. The vials (open) were stored under 4 different stress conditions, respectively.

in vivo = details: rat
Excerpt: Based upon available human PK and preclinical pharmacology data, the doses were anticipated to provide a range of PD effects including both minimum and maximum JNK inhibition.

[5] = Solid state chemical stability under stress conditions (HPLC with UV detection); details: for Chemical stability (open vial, 2 weeks): HPLC/UV
Method: Six vials were prepared for each salt. Two samples were stored in the refrigerator. The other four samples in open vials were stored under 4 stress conditions, respectively. […] One set of samples stored in the refrigerator were used to prepare the stock and standard solutions.

[6] = 200 mg tablet vs 2×100 mg capsules, single oral dose, fasted
[7] = Comparison E/D: 200 mg tablet fasted vs 2×100 mg AIC fasted
[8] = Comparison F/E: 200 mg tablet fed vs fasted
[9] = single oral dose of 200 mg tablet
[10] = measured after 24 hours shaking

## C[C@@H]1CC[C@@H](Nc2nc(NC(C)(C)C)ncc2C(N)=O)C[C@H]1O [Compound 1, 2-(tert-butylamino)-4-((1R,3R,4R)-3-hydroxy-4-methylcyclohexylamino)-pyrimidine-5-carboxamide]
[1]; [6]
  AUCt and AUC∞ of tablet compared to the capsules: equivalent
  Cmax of tablet lower relative to the capsule formulation: ~17%
[1]; [7]
  AUCt, Ratio (%) of Geometric Means: 92.6%
  AUC∞, Ratio (%) of Geometric Means: 92.9%
  Cmax, Ratio (%) of Geometric Means: 82.9%
[1]; [8]
  AUCt, Ratio (%) of Geometric Means: 100.6%
  AUC∞, Ratio (%) of Geometric Means: 100.8%
  Cmax, Ratio (%) of Geometric Means: 106.4%
[1]; Treatment F: 1×200 mg formulated tablet, single oral dose, fed (high-fat breakfast), geometric mean (geometric CV%), N=12
  AUCτ (time 0 to the last quantifiable concentration): 12000 (27.4) ng · h/mL
[1]; 200 mg, Treatment D: 2×100 mg as AIC, single oral dose, fasted, healthy subjects, geometric mean (geometric CV%), N=12, read-out: AUCτ (time 0 to the last quantifiable concentration)
  AUC(0-t): 12900 ng·h/mL
[1]; oral, 200 mg, Comparison E/D: 200 mg tablet fasted vs 2×100 mg AIC fasted, read-out: tmax, Median Difference
  Tmax: 0.01 h
[1]; oral, 200 mg, Comparison F/E: 200 mg tablet fed vs fasted, read-out: tmax, Median Difference
  Tmax: 0.87 h
[1]; oral, postdose, for all doses (Part 1 and Part 2), read-out: median Tmax
  Tmax: 1.95 to 3 h
[1]; po, 200 mg, Treatment D: 2×100 mg as AIC, single oral dose, fasted, N=12, read-out: AUCt, Geometric Mean (ANOVA LS mean)
  AUC(0-t): 12900 ng·h/mL
[1]; po, 200 mg, Treatment D: 2×100 mg as AIC, single oral dose, fasted, N=12, read-out: AUC∞, Geometric Mean (ANOVA LS mean)
  AUC(0-inf): 13100 ng·h/mL
[1]; po, 200 mg, Treatment D: 2×100 mg as AIC, single oral dose, fasted, N=12, read-out: Cmax, Geometric Mean (ANOVA LS mean)
  Cmax: 2080 ng/mL
[1]; po, 200 mg, Treatment D: 2×100 mg as AIC, single oral dose, fasted, N=12, read-out: tmax, Median (Hodges-Lehmann estimate)
  Tmax: 2 h
[1]; po, 200 mg, Treatment D: 2×100 mg as AIC, single oral dose, fasted, geometric mean (geometric CV%), N=12, read-out: AUC∞
  AUC(0-inf): 13100 ng·h/mL
[1]; po, 200 mg, Treatment D: 2×100 mg as AIC, single oral dose, fasted, geometric mean (geometric CV%), N=12, read-out: Cmax
  Cmax: 2080 ng/mL
[1]; po, 200 mg, Treatment D: 2×100 mg as AIC, single oral dose, fasted, geometric mean (geometric CV%), N=12
  Vd/F: 447 L
[1]; po, 200 mg, Treatment D: 2×100 mg as AIC, single oral dose, fasted, geometric mean (geometric CV%), N=12, read-out: t1/2 (terminal elimination half-life) (converted)
  half-life: 20.3 h
[1]; po, 200 mg, Treatment D: 2×100 mg as AIC, single oral dose, fasted, median (minimum, maximum), N=12, read-out: Tmax
  Tmax: 2 h
[1]; po, 200 mg, Treatment E: 1×200 mg formulated tablet, single oral dose, fasted, N=12, read-out: AUCt, Geometric Mean (ANOVA LS mean)
  AUC(0-t): 11900 ng·h/mL
[1]; po, 200 mg, Treatment E: 1×200 mg formulated tablet, single oral dose, fasted, N=12, read-out: AUC∞, Geometric Mean (ANOVA LS mean)
  AUC(0-inf): 12200 ng·h/mL
[1]; po, 200 mg, Treatment E: 1×200 mg formulated tablet, single oral dose, fasted, N=12, read-out: Cmax, Geometric Mean (ANOVA LS mean)
  Cmax: 1730 ng/mL
[1]; po, 200 mg, Treatment E: 1×200 mg formulated tablet, single oral dose, fasted, N=12, read-out: tmax, Median (Hodges-Lehmann estimate)
  Tmax: 2 h
[1]; po, 200 mg, Treatment E: 1×200 mg formulated tablet, single oral dose, fasted, geometric mean (geometric CV%), N=12, read-out: AUCτ (time 0 to the last quantifiable concentration)
  AUC(0-t): 11900 ng·h/mL
[1]; po, 200 mg, Treatment E: 1×200 mg formulated tablet, single oral dose, fasted, geometric mean (geometric CV%), N=12, read-out: AUC∞
  AUC(0-inf): 12200 ng·h/mL
[1]; po, 200 mg, Treatment E: 1×200 mg formulated tablet, single oral dose, fasted, geometric mean (geometric CV%), N=12, read-out: Cmax
  Cmax: 1730 ng/mL
[1]; po, 200 mg, Treatment E: 1×200 mg formulated tablet, single oral dose, fasted, geometric mean (geometric CV%), N=12
  Vd/F: 477 L
[1]; po, 200 mg, Treatment E: 1×200 mg formulated tablet, single oral dose, fasted, geometric mean (geometric CV%), N=12, read-out: t1/2 (terminal elimination half-life) (converted)
  half-life: 20.1 h
[1]; po, 200 mg, Treatment E: 1×200 mg formulated tablet, single oral dose, fasted, median (minimum, maximum), N=12, read-out: Tmax
  Tmax: 2 h
[1]; po, 200 mg, Treatment F: 1×200 mg formulated tablet, single oral dose, fed, N=12, read-out: AUCt, Geometric Mean (ANOVA LS mean)
  AUC(0-t): 12000 ng·h/mL
[1]; po, 200 mg, Treatment F: 1×200 mg formulated tablet, single oral dose, fed, N=12, read-out: AUC∞, Geometric Mean (ANOVA LS mean)
  AUC(0-inf): 12300 ng·h/mL
[1]; po, 200 mg, Treatment F: 1×200 mg formulated tablet, single oral dose, fed, N=12, read-out: Cmax, Geometric Mean (ANOVA LS mean)
  Cmax: 1840 ng/mL
[1]; po, 200 mg, Treatment F: 1×200 mg formulated tablet, single oral dose, fed, N=12, read-out: tmax, Median (Hodges-Lehmann estimate)
  Tmax: 3 h
[1]; po, 200 mg, Treatment F: 1×200 mg formulated tablet, single oral dose, fed, geometric mean (geometric CV%), N=12, read-out: AUC∞
  AUC(0-inf): 12300 ng·h/mL
[1]; po, 200 mg, Treatment F: 1×200 mg formulated tablet, single oral dose, fed, geometric mean (geometric CV%), N=12, read-out: Cmax
  Cmax: 1840 ng/mL
[1]; po, 200 mg, Treatment F: 1×200 mg formulated tablet, single oral dose, fed, geometric mean (geometric CV%), N=12
  Vd/F: 510 L
[1]; po, 200 mg, Treatment F: 1×200 mg formulated tablet, single oral dose, fed, geometric mean (geometric CV%), N=12, read-out: t1/2 (terminal elimination half-life) (converted)
  half-life: 21.7 h
[1]; po, 200 mg, Treatment F: 1×200 mg formulated tablet, single oral dose, fed, median (minimum, maximum), N=12, read-out: Tmax
  Tmax: 3 h
[1]; po, 200 mg, following a single oral dose of 200 mg, read-out: terminal elimination t1/2 (converted)
  half-life: ~20 h
[1]; single 200 mg dose, Treatment D (FIG. 106)
  correlation of plasma concentrations with whole blood concentration: highly correlated
[1]; single oral 200 mg tablet, healthy subjects
  effect of food on the PK of the tablet formulation: no effect
[1]; [9]
  AUCt and AUC∞ under fed compared to fasted conditions: equivalent
  Cmax higher in the fed state compared to the fasted state: ~6%
[2]; 11 of 28 subjects, 17 TEAEs, Parts 1 and 2 overall
  subjects reporting TEAEs: 39.3%
[2]; Parts 1 and 2
  clinical laboratory evaluations, vital sign measurements, ECGs: No clinically significant changes or findings
[2]; Parts 1 and 2 overall, 28 subjects
  subjects with an SAE or severe TEAE: No subjects
[2]; multiple doses 60, 160 and 400 mg AIC QD for 6 days
  safety and tolerability: safe and well tolerated
[2]; of 28 subjects
  diarrhea suspected of being related to Compound 1: 2 subjects
  nausea suspected of being related to Compound 1: 4 subjects
[2]; single doses of 200 mg as formulated tablets (fed and fasted) and AIC (fasted)
  safety and tolerability: safe and well tolerated
[3]; [10]
  pH of the solubility sample in SGF: (pH 2.20)
  pH of the solubility sample in water: (pH 8.96)
[3]; pH 2.2, thermodynamic from solid, simulated gastric fluid without pepsin, read-out: Solubility in SGF (equiv. to free base)
  solubility at 24 h: 7170 µg/mL
[3]; pH 8.96, thermodynamic from solid, water, read-out: Solubility in water (equiv. to free base)
  solubility at 24 h: 18 µg/mL
[4]; 80° C./75% RH, listed as Compound 1 (free base)
  Physical stability (open vial, 2 weeks): physically stable
[4]; 80° C./75% RH, listed as Free base
  Physical stability (open vial, 2 weeks): no change
[4]; 80° C., listed as Compound 1 (free base)
  Physical stability (open vial, 2 weeks): physically stable
[4]; 80° C., listed as Free base
  Physical stability (open vial, 2 weeks): no change
In vivo
  AUC: 23400 ng·h/mL
[5]; 80° C./75% RH
  Chemical stability (open vial, 2 weeks): no change
[5]; 80° C.
  Chemical stability (open vial, 2 weeks): no change
[5]; solid state, open vial, 80° C., 2 weeks, HPLC with UV detection
  % Remaining at 80° C.: 101.8%
[5]; solid state, open vial, 80° C./75% RH, 2 weeks, HPLC with UV detection
  % Remaining at 80° C./75% RH: 100.8%
